According to patent US20090136968A1, “Novel in vitro methods for studying receptors recognizing volatile compounds” (Chemcom S. A., priority 2005, published 2009):

What was measured:
[1] = molecular target: T1, mOR-I7 (Mus musculus, UniProt Q9QWU6); test: Novel olfactory functional assay (CCBSA), microplate calcium flux (Fluo4, FDSS) on HEK 293T overexpressing mOR-I7; format: cell-based; conditions: for hits / potential ligands of mOR-I7 through the 4 screenings / ligands of mOR-I7 in two independent calcium flux screenings of 30 odorants: BSA as carrier; for hits / potential ligands of mOR-I7 through the 4 screenings: calcium flux and cAMP screenings together; for ligands of mOR-I7 in two independent calcium flux screenings of 30 odorants: standardized to 100 μM ATP; for hit / potential ligand of mOR-I7 in screening of 30 odorants: carrier fraction 4 (bOBP and BSA) incubated with 16 μl of 1M odorant, ratio mOR-I7 on Wt, standardized to 1 mM ATP
T1 construct: expressed in transfected cells; host or cells: HEK 293T
T1 sequence (Q9QWU6 1-327): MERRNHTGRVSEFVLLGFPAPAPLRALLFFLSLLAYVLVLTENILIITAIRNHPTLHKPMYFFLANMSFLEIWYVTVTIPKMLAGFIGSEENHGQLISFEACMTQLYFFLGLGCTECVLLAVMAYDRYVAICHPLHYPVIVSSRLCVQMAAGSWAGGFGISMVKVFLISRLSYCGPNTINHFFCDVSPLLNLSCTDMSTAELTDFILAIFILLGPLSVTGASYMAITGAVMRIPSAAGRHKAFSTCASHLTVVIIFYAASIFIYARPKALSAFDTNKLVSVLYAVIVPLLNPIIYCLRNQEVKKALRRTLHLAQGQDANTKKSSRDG
Method: (§1) A solution of BP including SA, OBP and/or olfactory mucus (see concentration in the text) was incubated in the presence of odorant in a sealed flask for 16 hours at 4° C. (FIG. 3A). Such incubated-BP solution was then used as tested complex on olfactory receptor-expressing cells. Prior to incubation with such complex, cells were incubated for 1 hour with 4 μM Fluo4-AM (Molecular Probe) in the presence of 1 mM probenecid, and then rinsed twice with Fluo4-AM free HBSS buffer. After injection of odorant-BP complex on OR expressing cells, calcium flux was followed by measuring fluorescence at 520 nm ([…]) on FDSS, a plate reader from Hamamatsu Photonics K.K. (Japan) at 25° C.
In an attempt to be closer to physiological process of olfaction and thereof to increase specificity and sensitivity of the cell-based assay described above, a novel olfactory functional assay was developed. Most of the time, mammalian smells volatile odorant molecules. However in the cell-based assay described above as in most cell-based assays, odorant molecules were injected into aqueous buffer. Such injection may lead to formation of micelles that can alter efficacy and specificity of ligands. Therefore a cell-based assay was developed focusing an a better solubilization of odorants. In summary, in a sealed flask, bovine olfactory mucus was incubated in the presence of an odorant (FIG. 3A). It was hereby tested if an odorant would be trapped and solubilized in that fluid. Thereafter, such solubilized odorant was injected onto cultured-cells overexpressing an olfactory receptor. Activation of this receptor could then be followed by conventional assay including fluorescent (FIGS. 3 B and C) and luminescent calcium assays.
For this novel assay, mOR-I7 activation was assessed by octanal. A constant volume of olfactory mucus was incubated in the presence of increasing amount of octanal ranging from 0 to 16 μl of a solution of 1M octanal. After 16 hours incubation at 4° C., bovine olfactory mucus was injected on HEK 293T overexpressing mOR-I7. Calcium flux was followed with Fluo4 on FDSS, a plate reader from Hamamatsu Photonics K.K. (Japan).
Capacity of fraction 4 to fulfil the role of odorant solubilizator was assessed in the newly proposed assay. Screening of 30 odorant molecules (FIG. 5A) was performed on HEK 293T wild type (FIG. 5C) or overexpressing mOR-I7 (FIG. 5B). Fraction 4 was incubated overnight at 4° C. […] These odorants led to at least one fold more activation of HEK 293T overexpressing mOR-I7 than the wild type counterpart. They can be classified into two groups. One group (FIG. 5 E (a) to (e)) gathers molecules that fit the olfactophore 1 depicted in FIG. 5 E (j). They are schematically made of 2 electronegative poles distanced by 6 carbons. They all contain a 6-8 carbon chain ended by an electronegative group as depicted by olfactophore 2 represented in FIG. 5 E (k).
However this fraction 4 contained two major proteins, bOBP and BSA. Thus the results of said Example could in this approach not rule out any implication of BSA into fraction 4 properties. Therefore the capacity of BSA to solubilize and thereof to enhance the efficacy of odorants in the novel cell based olfactory functional assay as described by the present invention has been tested. To be as close as possible to BSA concentration observed in fraction 4. BSA concentration was set up at 5×10^−6 M for the following experiments (marked by an arrow on FIG. 6 G). Fraction 4 and a solution of fatty acid-free BSA were incubated at 4° C. for 16 hours in the presence of increasing volume of 1M octanal. So-incubated solutions were then applied onto HEK 293T wt or overexpressing mOR-I7. Calcium-flux was followed on a plate reader (Hamamatsu Photonics K.K., Japan) with fluo4 as fluorescent dye (FIG. 6 A to F). […] Such phenomenon is usually observed in such fluorescence assay when increasing ligand concentrations are injected. […]

[2] = molecular target: T1, mOR-I7; test: cAMP level immunoassay (TROPIX) in the novel assay on HEK 293T overexpressing mOR-I7; format: cell-based; conditions: BSA solution incubated with 16 μl of 1 M odorant; 20 minutes incubation
Method: Similarly to the first step of the fluorescence-based functional assay described above, BP solutions including SA, OBP and/or olfactory mucus (see concentration in the text) were incubated in the presence of odorant in a sealed flask for 16 hours at 4° C. (FIG. 3A). Such odorant-BP complexes were then applied to cultured-cell for 20 minutes at 37° C. cAMP level was then measured using the Tropix kit according to the manufacturer procedures (Applied Biosystem).
As depicted in FIG. 1, binding of odorant molecule to olfactory receptor triggers a cascade of molecular events. In the most commonly accepted pathway, the first second messenger is cAMP synthesized by adenylate cyclase type III. Therefore, a mean to test olfactory receptor activation is to assess variation of cellular cAMP pool after olfactory receptor activation. It is noteworthy that such assay could be performed in parallel to calcium flux assay described above to validate hits obtained during a screening.
Specificity of the novel cell based olfactory functional assay according to the present invention was tested following mOR-I7 activation after injection of these three odorants and two non related odorant, vanilline and piperonyl isobutyrate. Olfactory receptor activation was detected by cellular cAMP pool immunoassay. A solution of BSA was incubated overnight at 4° C.
As discussed above (FIG. 1), activation of olfactory receptor can also be followed through cAMP synthesis. […] Results are expressed as percent of response observed after incubation with 100 μM forskolin, an activator of adenylate cyclases. […] Scheme of the odorant molecules are depicted in FIG. 7E.

[3] = test system: hORL-424; test: Fluorescent calcium flux assay on HEK 293T overexpressing hORL-424, odorant in assay buffer with or without bovine olfactory mucus; format: cell-based, human
Method: FIG. 2: Bovine olfactory mucus enhances hORL-424 activation by citronellal. (A and B) Calcium measurement was performed after activation of hORL-424 with citronellal in the presence of different amount of bovine olfactory mucus. 0 to 10 μl of mucus (0 to 10 μg of total protein) have been added to assay buffer. Calcium flux has been followed on FDSS (Hamamatsu Photonics K.K. plate reader, Japan) using Fluo4 as fluorescent dye. Histograms represent fluorescent signal observed in the presence or in the absence of 10 μl of bovine olfactory mucus. (C) Concentration response curve of HEK 293T overexpressing hORL-424 treated with citronellal. Gray boxes represent values obtained in the presence of bovine olfactory mucus. Calcium flux measurements have been performed on FDSS (Hamamatsu Photonics K.K. plate reader, Japan). (D and E) Traces obtained during single cell calcium imaging after addition of 500 μM octanal on HEK 293T overexpressing mOR-I7 in the absence (D) or in the presence of 10 μl of bovine olfactory mucus (E). Fura2 was used as fluorescent dye. Results are expressed as F340/F380 ratiometric measurement.
as §1
hORL-424, a human olfactory receptor, was overexpressed in HEK 293T, a […] (Hunter). […]

[4] = molecular target: T1, mOR-I7; conditions: literature (references); cited from earlier work

hits / potential ligands of mOR-I7 through the 4 screenings [1] | ligands of mOR-I7 in two independent calcium flux screenings of 30 odorants [1] | hit / potential ligand of mOR-I7 in screening of 30 odorants [1] | mOR-I7 activation by cellular cAMP pool [2] | Compound | further results
hits | consistent | potential ligands of mOR-I7 and hits | – | CCCCC(=O)C(C)=O [2,3 heptanedione] | –
– | – | potential ligands of mOR-I7 | – | COCCc1ccc(O)cc1 [4(2-methoxyethyl)phenol] | hit / potential ligand of mOR-I7 in screening of 30 odorants ([1]; listed as 4-(2-methoxyethyl)-phenol): hits
– | – | potential ligands of mOR-I7 and hits | – | COc1cc(CCC(C)=O)ccc1O [Vanillyl acetone] | –
– | – | potential ligands of mOR-I7 | – | CC/C=C\CCCCC=O [cis-6-nonenal] | hit / potential ligand of mOR-I7 in screening of 30 odorants ([1]; listed as 6-cis-nonenal): hits
hits | – | potential ligands of mOR-I7 and hits | mOR-I7 ligands | CC(C)=CCCC(C)CC=O (stereo not shown) [citronellal] | improvement of hORL-424 activation on addition of bovine olfactory mucus ([3]; bovine olfactory mucus in assay buffer vs absence, fluo4, 96-well plate): approximately 9 folds; concentration necessary to reach maximum activation of hORL-424 ([3]; conventional assay, no mucus): up to 10 mM; concentration sufficient to reach maximum activation of hORL-424 ([3]; olfactory mucus added in the assay buffer): 0.5 mM; known activation of mOR-I7 [4]: activated specifically
– | consistent | potential ligands of mOR-I7 and hits | – | CC(C)=CCCC(C)CCO (stereo not shown) [citronellol] | –
hits | consistent | – | mOR-I7 ligands | CCCCCCC=O [heptanal] | known activation of mOR-I7 [4]: activated specifically
hits | consistent | potential ligands of mOR-I7 | – | CCCCCCCO [heptanol] | hit / potential ligand of mOR-I7 in screening of 30 odorants ([1]; listed as 1-heptanol): hits
hits | consistent | potential ligands of mOR-I7 | – | CCCCCCCCO [octanol] | hit / potential ligand of mOR-I7 in screening of 30 odorants ([1]; listed as 1-octanol): hits
– | – | – | did not lead to cAMP synthesis | CC(C)C(=O)OCc1ccc2c(c1)OCO2 [piperonyl isobutyrate] | –

Compound | hits / potential ligands of mOR-I7 through the 4 screenings [1] | ligands of mOR-I7 in two independent calcium flux screenings of 30 odorants [1] | hit / potential ligand of mOR-I7 in screening of 30 odorants [1] | mOR-I7 activation by cellular cAMP pool [2] | further results
COc1cc(C=O)ccc1O [Vanilline] | – | – | – | did not lead to cAMP synthesis | –
